Experimental data from ChEMBL document CHEMBL1201862, “PubChem BioAssay data set” (2004).
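Protocol summary: plate cells (96-well), add compound at 5 concentrations, incubate 48 h, interpolate endpoints linearly. GI50: concentration for 50% inhibition of growth.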 Active and inactive are the calls of the source. No stated cut-off is given here; in the data, active = GI50 up to about 1.1 µM and inactive = higher. Square brackets hold non-standard residues; d marks the D form. Peptide text beside a SMILES is read from it. * marks the point of attachment. ξ: configuration not given here. NMeN = CN[C@@H](CC(N)=O)C(=O)O; NMeV = CN[C@H](C(=O)O)C(C)C; ξNMeV = CNC(C(=O)O)C(C)C; Boc = CC(C)(C)OC(=O)*; ξNMeA = CNC(C)C(=O)O

Key:
Assay in all cases: inhibition of tumour cell growth, NCI panel, 48 h
DLD-1 = test system: DLD-1
LXFL 529 = test system: LXFL 529
DMS-273 = test system: DMS-273
SNB-78 = test system: SNB-78
DMS-114 = test system: DMS-114
HOP-18 = test system: HOP-18
M19-MEL = test system: M19-MEL
RXF 631 = test system: RXF 631
XF498 = test system: XF498

SMILES	GI50 (DLD-1)	GI50 (LXFL 529)	GI50 (DMS-273)	GI50 (SNB-78)	GI50 (DMS-114)	GI50 (HOP-18)	GI50 (M19-MEL)	GI50 (RXF 631)	GI50 (XF498)
Nc1ncnc2c1ncn2CC(O)CO (stereo not given)	> 100 µM (inactive)	> 100 µM (inactive)	> 100 µM (inactive)	> 100 µM (inactive)	> 100 µM (inactive)	> 100 µM (inactive)	> 100 µM (inactive)	> 100 µM (inactive)	
c1cc2c(cnc3cscc32)s1	> 100 µM (inactive)		> 100 µM (inactive)	> 100 µM (inactive)	> 100 µM (inactive)		> 100 µM (inactive)	> 100 µM (inactive)	11 µM (inactive)
COc1cc(C(C)c2cc3c(cc2OCCCCOc2cc4c(cc2C(C)c2cc(OC)c(OC)c(OC)c2)OCO4)OCO3)cc(OC)c1OC (stereo not given)	35.6 µM (inactive)	33.3 µM (inactive)		20.1 µM (inactive)	15.9 µM (inactive)		38.4 µM (inactive)	39.7 µM (inactive)	27.6 µM (inactive)
CC1CC(c2ccc([N+](=O)[O-])cc2)=Nc2ccccc2S1 (stereo not given)	12.9 µM (inactive)	13.3 µM (inactive)	20.2 µM (inactive)	67.5 µM (inactive)	17.4 µM (inactive)	> 100 µM (inactive)	13.8 µM (inactive)		31.6 µM (inactive)
N#Cc1cccc(/C=N/C23CC4CC(CC(C4)C2)C3)c1			> 100 µM (inactive)	> 100 µM (inactive)	> 100 µM (inactive)		> 100 µM (inactive)		
C1=CC=C2NCCOCC/N=C3/C=CC=CC=C3NCCOCC/N=C\2C=C1	> 100 µM (inactive)	40.1 µM (inactive)	> 100 µM (inactive)	> 100 µM (inactive)	46.6 µM (inactive)	> 100 µM (inactive)	> 100 µM (inactive)	30 µM (inactive)	
CN(C)C(=C1C(Br)=C(Br)C(Br)=C1Br)N(C)C	> 100 µM (inactive)	75 µM (inactive)	> 100 µM (inactive)		> 100 µM (inactive)	> 100 µM (inactive)	> 100 µM (inactive)		
COc1cc(/C=C2\CCC(C)(CN(C)C)C2=O)cc(OC)c1OC (stereo not given)	> 89.1 µM (inactive)	> 100 µM (inactive)	> 100 µM (inactive)	> 44.7 µM (inactive)	99.5 µM (inactive)	> 100 µM (inactive)	> 100 µM (inactive)		> 100 µM (inactive)
CCOC(=O)c1cnc2oc(-c3ccc(OC)cc3)nn2c1=O		> 100 µM (inactive)	> 100 µM (inactive)	> 100 µM (inactive)	> 100 µM (inactive)		> 100 µM (inactive)		
Cc1ccc(NS(=O)(=O)c2cc(C(C)(C)C)ccc2OCCOCCOCCOc2ccc(C(C)(C)C)cc2S(=O)(=O)Nc2ccc(C)cc2)cc1	> 100 µM (inactive)		> 100 µM (inactive)	> 100 µM (inactive)	> 100 µM (inactive)	> 100 µM (inactive)	> 100 µM (inactive)		
CC1=NN(C(=O)Cc2ccccc2)C(=O)/C1=C\C=C\c1ccccc1	> 100 µM (inactive)		> 100 µM (inactive)	83.6 µM (inactive)		14.8 µM (inactive)			> 100 µM (inactive)
C/C(=N\N(C)C)C(CN1CCCCC1)C(c1ccccc1)c1c(O)c2ccccc2oc1=O (stereo not given)	> 100 µM (inactive)	> 100 µM (inactive)	> 100 µM (inactive)	> 100 µM (inactive)	> 100 µM (inactive)	> 100 µM (inactive)	> 100 µM (inactive)	> 100 µM (inactive)	74.1 µM (inactive)
S=c1nc2c(c[nH]1)C1c3ccccc3C2c2ccccc21		> 100 µM (inactive)	> 100 µM (inactive)	> 100 µM (inactive)	62.2 µM (inactive)		> 100 µM (inactive)		
CCCCCCCCCCCC(=O)OCC1OC(n2cc(F)c(=O)[nH]c2=O)C(N)C(O)C1O (stereo not given)	71.8 µM (inactive)	> 100 µM (inactive)	> 100 µM (inactive)	> 100 µM (inactive)	> 100 µM (inactive)	88.9 µM (inactive)	> 100 µM (inactive)		
CC1=C(C(=O)Nc2ccc([N+](=O)[O-])cc2)C(c2cccc([N+](=O)[O-])c2)C(C(=O)Nc2ccc([N+](=O)[O-])cc2)=C(C)N1	9.66 µM (inactive)	8.53 µM (inactive)		> 100 µM (inactive)	8.53 µM (inactive)	> 100 µM (inactive)	23 µM (inactive)	> 100 µM (inactive)	2.87 µM (inactive)
COc1ccc(S(=O)(=O)N/N=C/c2cc(I)cc([N+](=O)[O-])c2O)cc1OC	36.3 µM (inactive)	27 µM (inactive)	35.2 µM (inactive)	24.7 µM (inactive)		21.6 µM (inactive)	33 µM (inactive)	38.8 µM (inactive)	24.1 µM (inactive)
CC(C)(C)C1CCC2(CC1)c1[nH]c3ccccc3c1C1(CCC(C(C)(C)C)CC1)c1[nH]c3ccccc3c12 (stereo not given)	> 100 µM (inactive)	> 100 µM (inactive)	> 100 µM (inactive)	> 100 µM (inactive)	25.9 µM (inactive)	> 100 µM (inactive)	> 100 µM (inactive)		> 100 µM (inactive)
COC(=O)C1=C(C)N(NC(N)=O)C2(N)N(NC(N)=O)C(C)=C(C(=O)OC)C12C#N (stereo not given)	> 100 µM (inactive)		> 100 µM (inactive)	> 100 µM (inactive)	> 100 µM (inactive)	> 100 µM (inactive)	> 100 µM (inactive)	> 100 µM (inactive)	> 100 µM (inactive)
NC(=O)N/N=C(\C(=O)C(=O)Nc1ccc(Cl)c(C(F)(F)F)c1)c1nc2ccc(C(=O)c3ccccc3)cc2nc1O			> 100 µM (inactive)	76.6 µM (inactive)	68.4 µM (inactive)	23.7 µM (inactive)	> 100 µM (inactive)		9.62 µM (inactive)
O=C1C=C(Nc2ccccc2C(=O)CC(=O)C(=O)Nc2ccc(Cl)c(Cl)c2)c2ccccc2C1=O	19.7 µM (inactive)			5.31 µM (inactive)	18.2 µM (inactive)		3.98 µM (inactive)		
COC(=O)C1=C(c2ccc(OC)c(OC)c2)OC(c2cc(OC)c(OC)c(OC)c2)C1 (stereo not given)	2.12 µM (inactive)	0.711 µM (active)	18.7 µM (inactive)	22.8 µM (inactive)	37.6 µM (inactive)	61.7 µM (inactive)	> 100 µM (inactive)	94.2 µM (inactive)	24.5 µM (inactive)
C1CCN(C2OC3C(COC3N3CCCCC3)OC2OC2CCO[C@@H]2N2CCCCC2)CC1 (stereo not given in full)	38.8 µM (inactive)	17.3 µM (inactive)	32.1 µM (inactive)	8.26 µM (inactive)	14.3 µM (inactive)				15.8 µM (inactive)
O=C1C2Cc3ccccc3CN2C(=O)N1CN1CCN(CN2C(=O)C3Cc4ccccc4CN3C2=O)CC1 (stereo not given)	> 100 µM (inactive)		> 100 µM (inactive)	> 100 µM (inactive)	> 100 µM (inactive)	> 100 µM (inactive)	> 100 µM (inactive)	> 100 µM (inactive)	
CCOC(=O)C(NC(=O)c1nc[nH]c1/N=N/N(C)C)C(C)C (stereo not given)	> 100 µM (inactive)	> 100 µM (inactive)	> 100 µM (inactive)		> 100 µM (inactive)		> 100 µM (inactive)		
C=C(CCCCCCCCC)CC(=O)SCCNC(=O)CCNC(=O)C(O)C(C)(C)COP(=O)(O)OP(=O)(O)OCC1OC(n2cnc3c(N)ncnc32)C(O)C1OP(=O)(O)O (stereo not given)	42.9 µM (inactive)	56.2 µM (inactive)	21 µM (inactive)	25.5 µM (inactive)	55.3 µM (inactive)	29.4 µM (inactive)	29.8 µM (inactive)	55.2 µM (inactive)	50 µM (inactive)
O=C(O)CP(=S)(S)c1ccccc1 (stereo not given)	> 100 µM (inactive)	> 100 µM (inactive)	> 100 µM (inactive)	> 100 µM (inactive)	> 100 µM (inactive)		> 100 µM (inactive)		> 100 µM (inactive)
O=c1ccn(C2(CO)C=C(CO)C(O)C2O)c(=O)[nH]1 (stereo not given)	> 25.7 µM (inactive)	> 25.7 µM (inactive)	> 25.7 µM (inactive)	> 25.7 µM (inactive)	> 25.7 µM (inactive)	> 25.7 µM (inactive)	> 25.7 µM (inactive)	> 25.7 µM (inactive)	
Oc1cc(-c2c[nH]c3ccccc23)nc2cc3c(cc12)OCO3	> 100 µM (inactive)	> 100 µM (inactive)	> 100 µM (inactive)		> 100 µM (inactive)		> 100 µM (inactive)	> 100 µM (inactive)	41.6 µM (inactive)
COC(=O)C(C)N(C)C(=O)[C@H](CC(N)=O)N(C)C(=O)[C@@H]1CCCN1C(=O)[C@H](C(C)C)N(C)C(=O)C(C(C)C)N(C)C(=O)[C@@H](NC(=O)OC(C)(C)C)C(C)C (stereo not given in full) (Boc-V[ξNMeV][NMeV]P[NMeN][ξNMeA]-OMe)	37 µM (inactive)	> 100 µM (inactive)	42.1 µM (inactive)	> 100 µM (inactive)		> 100 µM (inactive)	> 100 µM (inactive)		> 100 µM (inactive)
